The record followed here is patent US20240376097A1, “BCL-2 Inhibitor” (BeiGene Ltd., priority 2020, published 2024).

SMILES strings stand for the structures.

Assay [1] concerns BCL-2 G101V knock-in cell line H96 (derive from RS4;11). Put plainly: Bcl 2-G101V Knock-In RS4;11 Cell Proliferation Assay. As to conditions: Homo sapiens, RS4;11 Bcl-2 G101V knock-in clone H96, 48 hrs, CellTiter-GLO, read-out: Cellular proliferation assay (IC50, nM) RS4. It is filed as cell-based. The method in brief:
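CellTiter-Glo luminescence after 48 h, 37 °C compound treatment (10 concentrations, maximum 1 μM or 10 μM) gave mean IC50 values. Cells were 50,000 per well of H96, a BCL2-G101V knock-in single clone derived from RS4;11 by Cas9 editing.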
For orientation: ATP-based viability assays read luminescence as a measure of living cells.

For assay [2], the target named is Recombinant human Bcl-2 protein (Homo sapiens (Human), UniProt P10415). Description: Bcl-2 TR-FRET Assay. The format is binding. As to conditions: Bcl-2 wild type, TR-FRET; read-out: Biochemical assay (IC50, nM) Bcl-2 WT. In short, it runs like this:
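TR-FRET read (337 nm excitation, 520/490 nm emission) after 1 h with 0.5 nM FITC-labeled Bak peptide and Tb-cryptate anti-6His antibody. Bcl-2 at 0.05 nM had been pre-incubated 0.5 h with compound. IC50 fitted by four-parameter logistic equation.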

In assay [3] the test system is RS4;11 (BCL-2 dependent acute lymphoblastic leukemia cell line). Put plainly: RS4;11 Cell Proliferation Assay. It is filed as cell-based. As to conditions: Homo sapiens, RS4-11, RS4;11 cells, read-out: Cellular proliferation assay (IC50, nM) RS4. The method in brief: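 Viability measured via CellTiter-Glo luminescence after a 48 h, 37 °C exposure to compounds (10 points, highest 1 μM). Seeding was 50,000 RS4;11 cells per well in 10% FBS RPMI-1640; IC50 given as mean.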

Assay [4] deals with recombinant human Bcl-2-G101V protein. Put plainly: Bcl-2-G101V TR-FRET Assay. The format is binding. The note with it: ratio of biochemical IC50 Bcl-2 G101V / Bcl-2 WT. The method in brief:
(§1)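 Ex337/em490 & 520 nm TR-FRET; % inhibition of Bcl-2-G101V–ligand interaction from 490:520 ratio vs. increasing compound conc.; IC50 by 4-parameter logistic fit.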
(TR-FRET usually uses a lanthanide donor and a delayed reading to cut background.)

Assay [5] addresses recombinant human Bcl-2-G101V protein (Homo sapiens (Human), UniProt P10415, G101V). Put plainly: Bcl-2-G101V TR-FRET Assay. As to conditions: Bcl-2 G101V mutant, TR-FRET; read-out: Biochemical assay (IC50, nM) Bcl-2 G101V. It is filed as binding. In short, it runs like this: as §1

For the compound `COc1cccc(CN2CCN(C3CC4(CCN(c5ccc(C(=O)NS(=O)(=O)c6ccc(NC[C@H]7CC[C@](C)(O)CC7)c([N+](=O)[O-])c6)c(Oc6cnc7[nH]ccc7c6)c5)CC4)C3)C(c3ccccc3C(C)C)C2)c1Cl` (stereo partly shown) [Example 120, 2-((1H-pyrrolo[2,3-b]pyridin-5-yl)oxy)-4-(2-(4-(2-chloro-3-methoxybenzyl)-2-(2-isopropylphenyl)piperazin-1-yl)-7-azaspiro[3.5]nonan-7-yl)-N-((4-((((1r,4r)-4-hydroxy-4-methylcyclohexyl)methyl)amino)-3-nitrophenyl)sulfonyl)benzamide], the IC50 in assay [1] was determined as 12.7 nM; in assay [2], 0.42 nM; in assay [3] it was 1.25 nM; in assay [5] it was 3.4 nM. In assay [4], the “Ratio of Bcl-2 G101V/WT” value came to 8.
The like results for `COc1cc(CN2CCN(C3CC4(CCN(c5ccc(C(=O)NS(=O)(=O)c6ccc(NC[C@H]7CC[C@](C)(O)CC7)c([N+](=O)[O-])c6)c(Oc6cnc7[nH]ccc7c6)c5)CC4)C3)[C@H](c3ccccc3C(C)C)C2)ccc1F` [Example 121a, 2-((1H-pyrrolo[2,3-b]pyridin-5-yl)oxy)-4-(2-((R)-4-(4-fluoro-3-methoxybenzyl)-2-(2-isopropylphenyl)piperazin-1-yl)-7-azaspiro[3.5]nonan-7-yl)-N-((4-((((1r,4r)-4-hydroxy-4-methylcyclohexyl)methyl)amino)-3-nitrophenyl)sulfonyl)benzamide] were, in that order, 0.603 nM, 0.12 nM, 0.153 nM, 0.4 nM and 3.4.
The like results for `COc1cc(CN2CCN(C3CC4(CCN(c5ccc(C(=O)NS(=O)(=O)c6ccc(NC[C@H]7CC[C@](C)(O)CC7)c([N+](=O)[O-])c6)c(Oc6cnc7[nH]ccc7c6)c5)CC4)C3)C(c3ccccc3C(C)C)C2)ccc1Cl` (stereo partly shown) [Example 126, 2-((1H-pyrrolo[2,3-b]pyridin-5-yl)oxy)-4-(2-(4-(4-chloro-3-methoxybenzyl)-2-(2-isopropylphenyl)piperazin-1-yl)-7-azaspiro[3.5]nonan-7-yl)-N-((4-((((1r,4r)-4-hydroxy-4-methylcyclohexyl)methyl)amino)-3-nitrophenyl)sulfonyl)benzamide] were, in that order, 3.6 nM, 0.42 nM, 0.18 nM, 1.9 nM and 4.5.
The like results for `COc1ccc(CN2CCN(C3CC4(CCN(c5ccc(C(=O)NS(=O)(=O)c6ccc(NC[C@H]7CC[C@](C)(O)CC7)c([N+](=O)[O-])c6)c(Oc6cnc7[nH]ccc7c6)c5)CC4)C3)C(c3ccccc3C(C)C)C2)cc1Cl` (stereo partly shown) [Example 128, 2-((1H-pyrrolo[2,3-b]pyridin-5-yl)oxy)-4-(2-(4-(3-chloro-4-methoxybenzyl)-2-(2-isopropylphenyl)piperazin-1-yl)-7-azaspiro[3.5]nonan-7-yl)-N-((4-((((1r,4r)-4-hydroxy-4-methylcyclohexyl)methyl)amino)-3-nitrophenyl)sulfonyl)benzamide] were, in that order, 3.94 nM, 0.63 nM, 0.36 nM, 2.6 nM and 4.
With `CC(C)c1ccccc1C1CN(Cc2cccc3c2OCCC3)CCN1C1CC2(CCN(c3ccc(C(=O)NS(=O)(=O)c4ccc(NC[C@H]5CC[C@](C)(O)CC5)c([N+](=O)[O-])c4)c(Oc4cnc5[nH]ccc5c4)c3)CC2)C1` (stereo partly shown) [Example 130, 2-((1H-pyrrolo[2,3-b]pyridin-5-yl)oxy)-4-(2-(4-(chroman-8-ylmethyl)-2-(2-isopropylphenyl)piperazin-1-yl)-7-azaspiro[3.5]nonan-7-yl)-N-((4-((((1r,4r)-4-hydroxy-4-methylcyclohexyl)methyl)amino)-3-nitrophenyl)sulfonyl)benzamide], the IC50 in assay [1] turned out to be 2.8 nM; in assay [2], 0.57 nM; in assay [3], 0.34 nM; in assay [5], 1.9 nM. In addition, the “Ratio of Bcl-2 G101V/WT” value in assay [4] is on record as 3.4.
As to `CC(C)c1ccccc1C1CN(Cc2cccc3c2CCCO3)CCN1C1CC2(CCN(c3ccc(C(=O)NS(=O)(=O)c4ccc(NC[C@H]5CC[C@](C)(O)CC5)c([N+](=O)[O-])c4)c(Oc4cnc5[nH]ccc5c4)c3)CC2)C1` (stereo partly shown) [Example 133, 2-((1H-pyrrolo[2,3-b]pyridin-5-yl)oxy)-4-(2-(4-(chroman-5-ylmethyl)-2-(2-isopropylphenyl)piperazin-1-yl)-7-azaspiro[3.5]nonan-7-yl)-N-((4-((((1r,4r)-4-hydroxy-4-methylcyclohexyl)methyl)amino)-3-nitrophenyl)sulfonyl)benzamide], the IC50 is 2.8 nM in assay [1], 0.57 nM in assay [2], 0.34 nM in assay [3] and 1.9 nM in assay [5]. Besides, the “Ratio of Bcl-2 G101V/WT” value in assay [4] is listed as 3.4.
The like results for `COc1ccc(CN2CCN(C3CC4(CCN(c5ccc(C(=O)NS(=O)(=O)c6ccc(NC[C@H]7CC[C@](C)(O)CC7)c([N+](=O)[O-])c6)c(Oc6cnc7[nH]ccc7c6)c5)CC4)C3)C(c3ccccc3C(C)C)C2)cc1C1CC1` (stereo partly shown) [Example 136, 2-((1H-pyrrolo[2,3-b]pyridin-5-yl)oxy)-4-(2-(4-(3-cyclopropyl-4-methoxybenzyl)-2-(2-isopropylphenyl)piperazin-1-yl)-7-azaspiro[3.5]nonan-7-yl)-N-((4-((((1r,4r)-4-hydroxy-4-methylcyclohexyl)methyl)amino)-3-nitrophenyl)sulfonyl)benzamide] were, in that order, 4.6 nM, 0.75 nM, 0.51 nM, 2.9 nM and 3.8.
The like results for `CC(C)c1ccccc1C1CN(Cc2cccc3ccoc23)CCN1C1CC2(CCN(c3ccc(C(=O)NS(=O)(=O)c4ccc(NC[C@H]5CC[C@](C)(O)CC5)c([N+](=O)[O-])c4)c(Oc4cnc5[nH]ccc5c4)c3)CC2)C1` (stereo partly shown) [Example 137, 2-((1H-pyrrolo[2,3-b]pyridin-5-yl)oxy)-4-(2-(4-(benzofuran-7-ylmethyl)-2-(2-isopropylphenyl)piperazin-1-yl)-7-azaspiro[3.5]nonan-7-yl)-N-((4-((((1r,4r)-4-hydroxy-4-methylcyclohexyl)methyl)amino)-3-nitrophenyl)sulfonyl)benzamide] were, in that order, 9.6 nM, 0.62 nM, 0.89 nM, 3.2 nM and 5.1.
The like results for `COc1ccc(OC2CCN(C3CC4(CCN(c5ccc(C(=O)NS(=O)(=O)c6ccc(NC[C@H]7CC[C@](C)(O)CC7)c([N+](=O)[O-])c6)c(Oc6cnc7[nH]ccc7c6)c5)CC4)C3)C(c3ccccc3C(C)C)C2)cc1` (stereo partly shown) [Example 138, 2-((1H-pyrrolo[2,3-b]pyridin-5-yl)oxy)-N-((4-((((1r,4r)-4-hydroxy-4-methylcyclohexyl)methyl)amino)-3-nitrophenyl)sulfonyl)-4-(2-(2-(2-isopropylphenyl)-4-(4-methoxyphenoxy)piperidin-1-yl)-7-azaspiro[3.5]nonan-7-yl) benzamide] were, in that order, 3 nM, 0.36 nM, 0.44 nM, 1.5 nM and 4.1.
In the case of `COc1ccc(CN2CCN(C3CC4(C3)CN(c3ccc(C(=O)NS(=O)(=O)c5ccc(NC[C@H]6CC[C@](C)(O)CC6)c([N+](=O)[O-])c5)c(Oc5cnc6[nH]cc(F)c6c5)c3)C4)[C@@H](c3ccccc3C(C)C)C2)cc1OC` [Example 141b, 4-(6-((S)-4-(3,4-dimethoxybenzyl)-2-(2-isopropylphenyl)piperazin-1-yl)-2-azaspiro[3.3]heptan-2-yl)-2-((3-fluoro-1H-pyrrolo[2,3-b]pyridin-5-yl)oxy)-N-((4-((((1r,4r)-4-hydroxy-4-methylcyclohexyl)methyl)amino)-3-nitrophenyl)sulfonyl)benzamide], the IC50 came to 4.09 nM in assay [1], 0.059 nM in assay [2], 0.659 nM in assay [3] and 2.3 nM in assay [5]. Moreover, in assay [4], the “Ratio of Bcl-2 G101V/WT” value was determined as 40.
The like results for `C#Cc1ccc(CN2CCN(C3CC4(CCN(c5ccc(C(=O)NS(=O)(=O)c6ccc(NC[C@H]7CC[C@](C)(O)CC7)c([N+](=O)[O-])c6)c(Oc6cnc7[nH]ccc7c6)c5)CC4)C3)C(c3ccccc3C(C)C)C2)cc1` (stereo partly shown) [Example 142, 2-((1H-pyrrolo[2,3-b]pyridin-5-yl)oxy)-4-(2-(4-(4-ethynylbenzyl)-2-(2-isopropylphenyl)piperazin-1-yl)-7-azaspiro[3.5]nonan-7-yl)-N-((4-((((1r,4r)-4-hydroxy-4-methylcyclohexyl)methyl)amino)-3-nitrophenyl)sulfonyl)benzamide] were, in that order, 6.22 nM, 0.56 nM, 0.795 nM, 3 nM and 5.3.
